The record followed here is article PMC4192288 (Endocrinology, 2013).

Structures are written as SMILES.

The assay concerns the target T1, 11β-hydroxysteroid dehydrogenase type 1 (11β-HSD1) (Mus musculus, UniProt P50172).
T1 construct: gene Hsd11b1; recombinant 11β-HSD1
Briefly: HTRF cortisol competitive assay with recombinant […]β-HSD1; also […] ex vivo inhibition in mouse liver. The class given is biochemical.

T1 sequence (P50172 whole entry): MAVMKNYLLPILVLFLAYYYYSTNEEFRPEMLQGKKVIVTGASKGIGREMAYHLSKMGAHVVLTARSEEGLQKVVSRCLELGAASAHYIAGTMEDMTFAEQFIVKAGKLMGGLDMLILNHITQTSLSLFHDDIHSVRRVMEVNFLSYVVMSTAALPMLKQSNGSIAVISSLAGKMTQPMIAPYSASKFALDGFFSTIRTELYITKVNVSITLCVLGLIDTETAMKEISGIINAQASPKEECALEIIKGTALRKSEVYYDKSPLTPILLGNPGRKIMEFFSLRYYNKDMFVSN

Regarding `F[C@H]1C[C@](c2ccc(Cl)cc2)(c2nnc(C3CC3)n2C2CC2)C1` [MK-0916, 3-[1-(4-chlorophenyl)-3-fluorocyclobutyl]-4,5-dicyclopropyl-1,2,4-triazole], the half-inhibitory concentration (IC50) is 0.03 µM.

By IC50 is commonly meant the concentration that gives 50% inhibition.
